Among the test systems are Klebsiella pneumoniae; Escherichia coli ESBL; Escherichia coli AS1.349; Bacillus cereus AS1.126; Yersinia pestis KIM pYV; Staphylococcus aureus; Escherichia coli JM109.
Holding throughout (assay): ≥ marks a high value that may be exact or a test limit, other limits are often not marked, values filed in µg/mL are converted to µM
Test [1] relates to Pseudomonas aeruginosa ATCC 27853.
The subject of test [2] is Escherichia coli ATCC 43827.
Test [3] concerns Enterococcus faecalis ATCC 29212.
Test [4] concerns Escherichia coli ATCC 25922.
The test system of test [5] is Escherichia coli ATCC 11775.
Test [6] deals with Staphylococcus aureus ATCC 25923.
The subject of test [7] is Lactococcus lactis AS1.1690.
Test [8] deals with Pseudomonas aeruginosa CGMCC 1.860.
The test system of test [9] is Enterococcus faecalis CGMCC 1.595.
Test [10] relates to Klebsiella aerogenes CGMCC 1.876.
Test [11] deals with Enterobacter cloacae CGMCC 1.58.
Test [12] has as its system Klebsiella pneumoniae subsp. pneumoniae CGMCC 1.176.
The subject of test [13] is Enterococcus faecium CGMCC 1.2334.
Test [14] deals with Staphylococcus aureus AS1.72.
Test [15] deals with Staphylococcus aureus ATCC 43300.
Test [16] has as its system Pseudomonas aeruginosa CUN 4158-02.
Test [17] relates to Bordetella bronchiseptica CUN 11844-99.
In test [18] the test system is Escherichia coli ATCC 23716.
The test system of test [19] is Acinetobacter baumannii ATCC 19606.
For test [20], the system named is Brucella abortus 9.49 (per-).
Test [21] has as its system Staphylococcus aureus ATCC 6538P.
In test [22] the test system is Staphylococcus aureus ATCC 9144.
Test [23] deals with Escherichia coli ATCC 10536.
Test [24] has as its system Klebsiella pneumoniae ATCC 27736.
The subject of test [25] is Pseudomonas aeruginosa ATCC BAA-427.
In test [26] the test system is Escherichia coli DH5alpha.
In test [27] the test system is Bacillus subtilis ATCC 6633.
Test [28] deals with Micrococcus luteus NBRC 12708.
For test [29], the system named is Staphylococcus aureus NBRC 12732.
In test [30] the test system is Escherichia coli NBRC 14237.
The test system of test [31] is Pseudomonas aeruginosa NBRC 12582.

Molecules are shown by their SMILES. Converted amounts (≈) assume the structure as drawn.

As usually defined, the MIC is the least concentration at which growth counts as inhibited. A lower MIC goes with inhibition by little substance. Regarding `CC(C)C[C@H](NC(=O)[C@H](CCCCN)NC(=O)CNC(=O)[C@H](CCCCN)NC(=O)[C@H](Cc1ccccc1)NC(=O)[C@H](CCCCN)NC(=O)[C@H](Cc1c[nH]c2ccccc12)NC(=O)[C@H](CCCN=C(N)N)NC(=O)[C@H](Cc1ccccc1)NC(=O)[C@H](CCCN=C(N)N)NC(=O)[C@H](CCCN=C(N)N)NC(=O)[C@H](Cc1ccc(O)cc1)NC(=O)[C@H](CO)NC(=O)[C@H](CCCCN)NC(=O)CN)C(=O)N[C@@H](Cc1ccccc1)C(=O)N[C@@H](CC(C)C)C(=O)N[C@@H](Cc1ccccc1)C(=O)NCC(N)=O` [GKSYRRFRWKFKGKLFLFG], the MIC came out at 6.61 µM (≈ 16 µg/mL) in the test on Klebsiella pneumoniae and 4.67 µM (≈ 11.3 µg/mL) against Escherichia coli ESBL.

As for `CSCC[C@H](NC(=O)[C@H](CCCN=C(N)N)NC(=O)[C@H](Cc1c[nH]c2ccccc12)NC(=O)[C@H](CCC(N)=O)NC(=O)[C@H](Cc1c[nH]c2ccccc12)NC(=O)[C@H](CCCN=C(N)N)NC(=O)[C@H](CCCN=C(N)N)NC(=O)[C@H](C)NC(=O)[C@H](CCCCN)NC(=O)[C@@H](N)Cc1ccccc1)C(=O)N[C@@H](CCCCN)C(=O)N[C@@H](CCCCN)C(=O)N[C@@H](CC(C)C)C(=O)NCC(=O)N[C@@H](C)C(=O)O` [FKARRWQWRMKKLGA], the MIC in test [1] was 48 µM (≈ 94.2 µg/mL); in test [2] it was 12 µM (≈ 23.5 µg/mL); in test [3] it was 48 µM (≈ 94.2 µg/mL); in test [4], 24 µM (≈ 47.1 µg/mL); in test [5], no less than 48 µM; in test [6], 48 µM (≈ 94.2 µg/mL).

Regarding `CSCC[C@H](NC(=O)[C@H](CCCN=C(N)N)NC(=O)[C@H](Cc1c[nH]c2ccccc12)NC(=O)[C@H](CCC(N)=O)NC(=O)[C@H](Cc1c[nH]c2ccccc12)NC(=O)[C@H](CCCN=C(N)N)NC(=O)[C@@H](N)CCCN=C(N)N)C(=O)N[C@@H](CCCCN)C(=O)N[C@@H](CCCCN)C(=O)N[C@@H](CC(C)C)C(=O)NCC(=O)O` [RRWQWRMKKLG], the MIC in test [1] was 15 µM (≈ 23.2 µg/mL); in [2] it was 7 µM (≈ 10.8 µg/mL); in test [4], 15 µM (≈ 23.2 µg/mL); in test [5], 15 µM (≈ 23.2 µg/mL); in test [6], 30 µM (≈ 46.3 µg/mL).

Turning to `NC(N)=NCCC[C@H](NC(=O)[C@H](CCCN=C(N)N)NC(=O)[C@H](Cc1c[nH]c2ccccc12)NC(=O)[C@H](Cc1ccccc1)NC(=O)[C@H](CCCN=C(N)N)NC(=O)[C@H](CCCN=C(N)N)NC(=O)[C@H](Cc1c[nH]c2ccccc12)NC(=O)[C@@H](N)CCCN=C(N)N)C(=O)O` [RWRRFWRR], the MIC in test [7] was 6.25 µM (≈ 8.24 µg/mL); in [8], 6.25 µM (≈ 8.24 µg/mL); in [9], 12.5 µM (≈ 16.5 µg/mL); in [10], no less than 100 µM; in test [11], no less than 100 µM; in [12], no less than 100 µM. For the same compound, the MIC was 12.5 µM (≈ 16.5 µg/mL) in test [13], 6.25 µM (≈ 8.24 µg/mL) in test [14], no less than 50 µM in the test on Escherichia coli AS1.349 and 3.13 µM (≈ 4.13 µg/mL) against Bacillus cereus AS1.126.

Consider `CC[C@H](C)[C@H](N)C(=O)N[C@@H](CO)C(=O)N[C@@H](CCCCN)C(=O)N[C@@H](CCCN=C(N)N)C(=O)N[C@H](C(=O)N[C@@H](CC(C)C)C(=O)N[C@H](C(=O)NCC(=O)N[C@@H](CCCCN)C(=O)N[C@@H](CCCCN)C(N)=O)[C@@H](C)O)[C@@H](C)CC` [ISKRILTGKK], for which the MIC is greater than 224 µM in test [15]; no less than 224 µM in [16]; no less than 224 µM in [17]; no less than 224 µM in test [18]; no less than 224 µM against Yersinia pestis KIM pYV; greater than 224 µM in test [4]. Also, the minimal inhibitory concentration (MIC) in test [19] is greater than 224 µM; in test [20], no less than 56 µM.

For `CC[C@H](C)[C@H](NC(=O)[C@H](C)NC(=O)[C@H](CC(C)C)NC(=O)[C@H](CS)NC(=O)[C@H](CCCN=C(N)N)NC(=O)[C@H](C)NC(=O)[C@H](C)NC(=O)[C@H](CS)NC(=O)[C@@H](N)CC(C)C)C(=O)NCC(=O)N[C@@H](CCCN=C(N)N)C(=O)N[C@@H](CCCN=C(N)N)C(N)=O` [LCAARCLAIGRR], the values for the MIC (in test [21]; in the test on Staphylococcus aureus; against Escherichia coli JM109) were 5.76 µM (≈ 7.49 µg/mL), greater than 49.1 µM and 24.6 µM (≈ 32 µg/mL), respectively.

Consider `CC[C@H](C)[C@H](NC(=O)CN)C(=O)NCC(=O)N[C@@H](C)C(=O)N[C@H](C(=O)N[C@H](C(=O)N[C@@H](CCCCN)C(=O)N[C@H](C(=O)N[C@@H](CC(C)C)C(=O)N[C@H](C(=O)N[C@H](C(=O)NCC(=O)N[C@H](C(=O)N1CCC[C@H]1C(=O)N[C@@H](C)C(=O)N[C@H](C(=O)N[C@H](C(=O)N[C@@H](CO)C(=O)N[C@@H](Cc1c[nH]c2ccccc12)C(=O)N[C@H](C(=O)N[C@@H](CCCCN)C(=O)N[C@@H](CCCN=C(N)N)C(=O)N[C@@H](CCCCN)C(=O)N[C@@H](CCCN=C(N)N)C(=O)N[C@@H](CCC(N)=O)C(=O)N[C@@H](CCC(N)=O)C(N)=O)[C@@H](C)CC)[C@@H](C)CC)C(C)C)C(C)C)[C@@H](C)O)[C@@H](C)O)C(C)C)C(C)C)C(C)C` [GIGAVVKVLTTGVPAVISWIKRKRQQ], for which the minimal inhibitory concentration (MIC) in test [22] stood at 3 µM (≈ 8.41 µg/mL); in [23], 3.3 µM (≈ 9.25 µg/mL); in [24], 2.1 µM (≈ 5.89 µg/mL); in test [25] it was 12 µM (≈ 33.7 µg/mL); in test [26], 3.5 µM (≈ 9.82 µg/mL); in test [27], 2.5 µM (≈ 7.01 µg/mL).

In the case of `CC[C@H](C)[C@H](NC(=O)CNC(=O)[C@H](C)NC(=O)[C@H](CC(C)C)NC(=O)[C@H](CC(C)C)NC(=O)CNC(=O)[C@@H]1CCCN1C(=O)[C@H](CC(C)C)NC(=O)[C@H](CC(C)C)NC(=O)[C@H](CC(N)=O)NC(=O)[C@H](CC(C)C)NC(=O)[C@H](CC(C)C)NC(=O)[C@@H](N)CCCCN)C(=O)N[C@@H](Cc1ccccc1)C(N)=O` [KLLNLLPGLLAGIF], the MIC is 25 µM (≈ 37 µg/mL) in test [28], 12.5 µM (≈ 18.5 µg/mL) in test [29], 12.5 µM (≈ 18.5 µg/mL) in test [30] and no less than 50 µM in [31].
